Measurements reported in patent US20230017045A1, “PYRIDINE AND PYRIMIDINE CARBOXYLATE HERBICIDES AND METHODS OF USE THEREOF” (Dow AgroSciences LLC, priority 2017, published 2023).

What follows are molecules tested on test plant species (assay: Post-emergent herbicidal activity test (greenhouse, foliar spray, visual growth reduction)). Conditions: post-emergence, 336 h, ALOMY: blackgrass (Alopecurus myosuroides), 140 g ai/ha, 14 days after application, read-out: Visual Growth Reduction (%) 14 Days After Application, ALOMY.
Type: in vivo
Outline: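 Greenhouse plants at first–second true leaf stage sprayed overhead at 187 L/ha with compound in acetone/water/isopropanol/DMSO/crop oil/X-77 carrier; controls received solvent blank. Injury rated visually after 14 d on a 0–100% scale versus untreated and control plants, converted to growth reduction.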

| Compound | pest or weed control at 140 g/ha [%] |
| --- | --- |
| COC(=O)c1nc(-c2ccc(C(F)(F)F)cc2C)ccc1Cl [F29, Methyl 3-chloro-6-(2-methyl-4-(trifluoromethyl)phenyl)picolinate] | 0 to 29 |
| COC(=O)c1nc(-c2ccc(S(C)(=O)=O)cc2)c(F)cc1Cl [F169, Methyl 3-chloro-5-fluoro-6-(4-(methylsulfonyl)phenyl)picolinate] | 0 to 29 |

Same assay, conditions: post-emergence, 336 h, AMARE: redroot pigweed (Amaranthus retroflexus), 140 g ai/ha, 14 days after application, read-out: Visual Growth Reduction (%) 14 Days After Application, AMARE

| Compound | pest or weed control at 140 g/ha [%] |
| --- | --- |
| COC(=O)c1nc(-c2ccc(C(F)(F)F)cc2C)ccc1Cl [F29, Methyl 3-chloro-6-(2-methyl-4-(trifluoromethyl)phenyl)picolinate] | 60 to 74 |
| COC(=O)c1nc(-c2ccc(S(C)(=O)=O)cc2)c(F)cc1Cl [F169, Methyl 3-chloro-5-fluoro-6-(4-(methylsulfonyl)phenyl)picolinate] | 30 to 44 |

Same assay, conditions: post-emergence, 336 h, AVEFA: wild oat (Avena fatua), 140 g ai/ha, 14 days after application, read-out: Visual Growth Reduction (%) 14 Days After Application, AVEFA

| Compound | pest or weed control at 140 g/ha [%] |
| --- | --- |
| COC(=O)c1nc(-c2ccc(C(F)(F)F)cc2C)ccc1Cl [F29, Methyl 3-chloro-6-(2-methyl-4-(trifluoromethyl)phenyl)picolinate] | 0 to 29 |
| COC(=O)c1nc(-c2ccc(S(C)(=O)=O)cc2)c(F)cc1Cl [F169, Methyl 3-chloro-5-fluoro-6-(4-(methylsulfonyl)phenyl)picolinate] | 0 to 29 |

Same assay, conditions: post-emergence, 336 h, CHEAL: lambsquarters (Chenopodium album), 140 g ai/ha, 14 days after application, read-out: Visual Growth Reduction (%) 14 Days After Application, CHEAL

| Compound | pest or weed control at 140 g/ha [%] |
| --- | --- |
| COC(=O)c1nc(-c2ccc(C(F)(F)F)cc2C)ccc1Cl [F29, Methyl 3-chloro-6-(2-methyl-4-(trifluoromethyl)phenyl)picolinate] | 60 to 74 |
| COC(=O)c1nc(-c2ccc(S(C)(=O)=O)cc2)c(F)cc1Cl [F169, Methyl 3-chloro-5-fluoro-6-(4-(methylsulfonyl)phenyl)picolinate] | 30 to 44 |

Same assay, conditions: post-emergence, 336 h, CIRAR: canada thistle (Cirsium arvense), 140 g ai/ha, 14 days after application, read-out: Visual Growth Reduction (%) 14 Days After Application, CIRAR

| Compound | pest or weed control at 140 g/ha [%] |
| --- | --- |
| COC(=O)c1nc(-c2ccc(C(F)(F)F)cc2C)ccc1Cl [F29, Methyl 3-chloro-6-(2-methyl-4-(trifluoromethyl)phenyl)picolinate] | 0 to 29 |
| COC(=O)c1nc(-c2ccc(S(C)(=O)=O)cc2)c(F)cc1Cl [F169, Methyl 3-chloro-5-fluoro-6-(4-(methylsulfonyl)phenyl)picolinate] | 0 to 29 |

Same assay, conditions: post-emergence, 336 h, CYPES: yellow nutsedge (Cyperus esculentus), 140 g ai/ha, 14 days after application, read-out: Visual Growth Reduction (%) 14 Days After Application, CYPES

| Compound | pest or weed control at 140 g/ha [%] |
| --- | --- |
| COC(=O)c1nc(-c2ccc(C(F)(F)F)cc2C)ccc1Cl [F29, Methyl 3-chloro-6-(2-methyl-4-(trifluoromethyl)phenyl)picolinate] | 0 to 29 |
| COC(=O)c1nc(-c2ccc(S(C)(=O)=O)cc2)c(F)cc1Cl [F169, Methyl 3-chloro-5-fluoro-6-(4-(methylsulfonyl)phenyl)picolinate] | 0 to 29 |

Same assay, conditions: post-emergence, 336 h, DIGSA: crabgrass (Digitaria sanguinalis), 140 g ai/ha, 14 days after application, read-out: Visual Growth Reduction (%) 14 Days After Application, DIGSA

| Compound | pest or weed control at 140 g/ha [%] |
| --- | --- |
| COC(=O)c1nc(-c2ccc(C(F)(F)F)cc2C)ccc1Cl [F29, Methyl 3-chloro-6-(2-methyl-4-(trifluoromethyl)phenyl)picolinate] | 45 to 59 |
| COC(=O)c1nc(-c2ccc(S(C)(=O)=O)cc2)c(F)cc1Cl [F169, Methyl 3-chloro-5-fluoro-6-(4-(methylsulfonyl)phenyl)picolinate] | 30 to 44 |

Same assay, conditions: post-emergence, 336 h, ECHCG: barnyardgrass (Echinochloa crus-galli), 140 g ai/ha, 14 days after application, read-out: Visual Growth Reduction (%) 14 Days After Application, ECHCG

| Compound | pest or weed control at 140 g/ha [%] |
| --- | --- |
| C=Cc1c(C(F)(F)F)ccc(-c2nc(C(=O)OC)c(Cl)cc2F)c1Cl [F338, Methyl 3-chloro-6-(2-chloro-4-(trifluoromethyl)-3-vinylphenyl)-5-fluoropicolinate] | 0 to 29 |
| COC(=O)c1nc(-c2ccc(C(F)(F)F)cc2C)ccc1Cl [F29, Methyl 3-chloro-6-(2-methyl-4-(trifluoromethyl)phenyl)picolinate] | 0 to 29 |
| COC(=O)c1nc(-c2ccc(S(C)(=O)=O)cc2)c(F)cc1Cl [F169, Methyl 3-chloro-5-fluoro-6-(4-(methylsulfonyl)phenyl)picolinate] | 45 to 59 |

Same assay, conditions: post-emergence, 336 h, IPOHE: ivy-leaf morning glory (Ipomoea hederacea), 140 g ai/ha, 14 days after application, read-out: Visual Growth Reduction (%) 14 Days After Application, IPOHE

| Compound | pest or weed control at 140 g/ha [%] |
| --- | --- |
| C=Cc1c(C(F)(F)F)ccc(-c2nc(C(=O)OC)c(Cl)cc2F)c1Cl [F338, Methyl 3-chloro-6-(2-chloro-4-(trifluoromethyl)-3-vinylphenyl)-5-fluoropicolinate] | 95 to 100 |
| COC(=O)c1nc(-c2ccc(C(F)(F)F)cc2C)ccc1Cl [F29, Methyl 3-chloro-6-(2-methyl-4-(trifluoromethyl)phenyl)picolinate] | 95 to 100 |
| COC(=O)c1nc(-c2ccc(S(C)(=O)=O)cc2)c(F)cc1Cl [F169, Methyl 3-chloro-5-fluoro-6-(4-(methylsulfonyl)phenyl)picolinate] | 60 to 74 |

Same assay, conditions: post-emergence, 336 h, KCHSC: kochia (Bassia scoparia), 140 g ai/ha, 14 days after application, read-out: Visual Growth Reduction (%) 14 Days After Application, KCHSC

| Compound | pest or weed control at 140 g/ha [%] |
| --- | --- |
| C=Cc1c(C(F)(F)F)ccc(-c2nc(C(=O)OC)c(Cl)cc2F)c1Cl [F338, Methyl 3-chloro-6-(2-chloro-4-(trifluoromethyl)-3-vinylphenyl)-5-fluoropicolinate] | 45 to 59 |
| COC(=O)c1nc(-c2ccc(C(F)(F)F)cc2C)ccc1Cl [F29, Methyl 3-chloro-6-(2-methyl-4-(trifluoromethyl)phenyl)picolinate] | 0 to 29 |
| COC(=O)c1nc(-c2ccc(S(C)(=O)=O)cc2)c(F)cc1Cl [F169, Methyl 3-chloro-5-fluoro-6-(4-(methylsulfonyl)phenyl)picolinate] | 30 to 44 |

Same assay, conditions: post-emergence, 336 h, ORYSA: rice (Oryza sativa), 140 g ai/ha, 14 days after application, read-out: Visual Growth Reduction (%) 14 Days After Application, ORYSA

| Compound | pest or weed control at 140 g/ha [%] |
| --- | --- |
| C=Cc1c(C(F)(F)F)ccc(-c2nc(C(=O)OC)c(Cl)cc2F)c1Cl [F338, Methyl 3-chloro-6-(2-chloro-4-(trifluoromethyl)-3-vinylphenyl)-5-fluoropicolinate] | 0 to 29 |
| COC(=O)c1nc(-c2ccc(C(F)(F)F)cc2C)ccc1Cl [F29, Methyl 3-chloro-6-(2-methyl-4-(trifluoromethyl)phenyl)picolinate] | 0 to 29 |
| COC(=O)c1nc(-c2ccc(S(C)(=O)=O)cc2)c(F)cc1Cl [F169, Methyl 3-chloro-5-fluoro-6-(4-(methylsulfonyl)phenyl)picolinate] | 0 to 29 |

Same assay, conditions: post-emergence, 336 h, SETFA: giant foxtail (Setaria faberi), 140 g ai/ha, 14 days after application, read-out: Visual Growth Reduction (%) 14 Days After Application, SETFA

| Compound | pest or weed control at 140 g/ha [%] |
| --- | --- |
| C=Cc1c(C(F)(F)F)ccc(-c2nc(C(=O)OC)c(Cl)cc2F)c1Cl [F338, Methyl 3-chloro-6-(2-chloro-4-(trifluoromethyl)-3-vinylphenyl)-5-fluoropicolinate] | 75 to 84 |
| COC(=O)c1nc(-c2ccc(C(F)(F)F)cc2C)ccc1Cl [F29, Methyl 3-chloro-6-(2-methyl-4-(trifluoromethyl)phenyl)picolinate] | 0 to 29 |
| COC(=O)c1nc(-c2ccc(S(C)(=O)=O)cc2)c(F)cc1Cl [F169, Methyl 3-chloro-5-fluoro-6-(4-(methylsulfonyl)phenyl)picolinate] | 60 to 74 |

Same assay, conditions: post-emergence, 336 h, SORVU: grain sorghum (Sorghum vulgare), 140 g ai/ha, 14 days after application, read-out: Visual Growth Reduction (%) 14 Days After Application, SORVU

| Compound | pest or weed control at 140 g/ha [%] |
| --- | --- |
| C=Cc1c(C(F)(F)F)ccc(-c2nc(C(=O)OC)c(Cl)cc2F)c1Cl [F338, Methyl 3-chloro-6-(2-chloro-4-(trifluoromethyl)-3-vinylphenyl)-5-fluoropicolinate] | 85 to 94 |
| COC(=O)c1nc(-c2ccc(C(F)(F)F)cc2C)ccc1Cl [F29, Methyl 3-chloro-6-(2-methyl-4-(trifluoromethyl)phenyl)picolinate] | 60 to 74 |
| COC(=O)c1nc(-c2ccc(S(C)(=O)=O)cc2)c(F)cc1Cl [F169, Methyl 3-chloro-5-fluoro-6-(4-(methylsulfonyl)phenyl)picolinate] | 60 to 74 |

Same assay, conditions: post-emergence, 336 h, STEME: common chickweed (Stellaria media), 140 g ai/ha, 14 days after application, read-out: Visual Growth Reduction (%) 14 Days After Application, STEME

| Compound | pest or weed control at 140 g/ha [%] |
| --- | --- |
| C=Cc1c(C(F)(F)F)ccc(-c2nc(C(=O)OC)c(Cl)cc2F)c1Cl [F338, Methyl 3-chloro-6-(2-chloro-4-(trifluoromethyl)-3-vinylphenyl)-5-fluoropicolinate] | 0 to 29 |
| COC(=O)c1nc(-c2ccc(C(F)(F)F)cc2C)ccc1Cl [F29, Methyl 3-chloro-6-(2-methyl-4-(trifluoromethyl)phenyl)picolinate] | 0 to 29 |
| COC(=O)c1nc(-c2ccc(S(C)(=O)=O)cc2)c(F)cc1Cl [F169, Methyl 3-chloro-5-fluoro-6-(4-(methylsulfonyl)phenyl)picolinate] | 0 to 29 |

Same assay, conditions: post-emergence, 336 h, TRZAS: wheat, spring (Triticum aestivum), 140 g ai/ha, 14 days after application, read-out: Visual Growth Reduction (%) 14 Days After Application, TRZAS

| Compound | pest or weed control at 140 g/ha [%] |
| --- | --- |
| C=Cc1c(C(F)(F)F)ccc(-c2nc(C(=O)OC)c(Cl)cc2F)c1Cl [F338, Methyl 3-chloro-6-(2-chloro-4-(trifluoromethyl)-3-vinylphenyl)-5-fluoropicolinate] | 30 to 44 |
| COC(=O)c1nc(-c2ccc(C(F)(F)F)cc2C)ccc1Cl [F29, Methyl 3-chloro-6-(2-methyl-4-(trifluoromethyl)phenyl)picolinate] | 0 to 29 |
| COC(=O)c1nc(-c2ccc(S(C)(=O)=O)cc2)c(F)cc1Cl [F169, Methyl 3-chloro-5-fluoro-6-(4-(methylsulfonyl)phenyl)picolinate] | 0 to 29 |

Same assay, conditions: post-emergence, 336 h, blackgrass (Alopecurus myosuroides), 14 Days After Application, 140 g ai/ha, read-out: Visual Growth Reduction (%) ALOMY

| Compound | pest or weed control at 140 g/ha [%] |
| --- | --- |
| C=Cc1c(C(F)(F)F)ccc(-c2nc(C(=O)OC)c(Cl)cc2F)c1Cl [F338, Methyl 3-chloro-6-(2-chloro-4-(trifluoromethyl)-3-vinylphenyl)-5-fluoropicolinate] | 0 to 29 |

Same assay, conditions: post-emergence, 336 h, crabgrass (Digitaria sanguinalis), 14 Days After Application, 140 g ai/ha, read-out: Visual Growth Reduction (%) DIGSA

| Compound | pest or weed control at 140 g/ha [%] |
| --- | --- |
| C=Cc1c(C(F)(F)F)ccc(-c2nc(C(=O)OC)c(Cl)cc2F)c1Cl [F338, Methyl 3-chloro-6-(2-chloro-4-(trifluoromethyl)-3-vinylphenyl)-5-fluoropicolinate] | 60 to 74 |

Same assay, conditions: post-emergence, 336 h, lambsquarters (Chenopodium album), 14 Days After Application, 140 g ai/ha, read-out: Visual Growth Reduction (%) CHEAL

| Compound | pest or weed control at 140 g/ha [%] |
| --- | --- |
| C=Cc1c(C(F)(F)F)ccc(-c2nc(C(=O)OC)c(Cl)cc2F)c1Cl [F338, Methyl 3-chloro-6-(2-chloro-4-(trifluoromethyl)-3-vinylphenyl)-5-fluoropicolinate] | 85 to 94 |

Same assay, conditions: post-emergence, 336 h, redroot pigweed (Amaranthus retroflexus), 14 Days After Application, 140 g ai/ha, read-out: Visual Growth Reduction (%) AMARE

| Compound | pest or weed control at 140 g/ha [%] |
| --- | --- |
| C=Cc1c(C(F)(F)F)ccc(-c2nc(C(=O)OC)c(Cl)cc2F)c1Cl [F338, Methyl 3-chloro-6-(2-chloro-4-(trifluoromethyl)-3-vinylphenyl)-5-fluoropicolinate] | 95 to 100 |

Same assay, conditions: post-emergence, 336 h, wild oat (Avena fatua), 14 Days After Application, 140 g ai/ha, read-out: Visual Growth Reduction (%) AVEFA

| Compound | pest or weed control at 140 g/ha [%] |
| --- | --- |
| C=Cc1c(C(F)(F)F)ccc(-c2nc(C(=O)OC)c(Cl)cc2F)c1Cl [F338, Methyl 3-chloro-6-(2-chloro-4-(trifluoromethyl)-3-vinylphenyl)-5-fluoropicolinate] | 30 to 44 |

Same assay, conditions: post-emergence, 336 h, yellow nutsedge (Cyperus esculentus), 14 Days After Application, 140 g ai/ha, read-out: Visual Growth Reduction (%) CYPES

| Compound | pest or weed control at 140 g/ha [%] |
| --- | --- |
| C=Cc1c(C(F)(F)F)ccc(-c2nc(C(=O)OC)c(Cl)cc2F)c1Cl [F338, Methyl 3-chloro-6-(2-chloro-4-(trifluoromethyl)-3-vinylphenyl)-5-fluoropicolinate] | 0 to 29 |
